Assay: xn = mol fraction of the nth substance listed
Conditions: 101 kPa, x2 = 0

CS(C)=O + Cn1cc[n+](CCCN)c1.F[B-](F)(F)F
Conditions | viscosity [mPa·s]
288.15 K | 2.605
293.15 K | 2.318
298.15 K | 2.089
303.15 K | 1.886
308.15 K | 1.717
313.15 K | 1.575
318.15 K | 1.447
323.15 K | 1.341
333.15 K | 1.164
338.15 K | 1.097
343.15 K | 1.034
348.15 K | 0.981
353.15 K | 0.934

— a compilation of properties of binary mixtures (doi:10.1007/s10953-023-01258-3)
